ChEMBL document CHEMBL1144284, “Pharmacophore identification of alpha(1A)-adrenoceptor antagonists” (Bioorg Med Chem Lett, 2005)

The compounds below were run against T1, Alpha-1A adrenergic receptor (Homo sapiens, UniProt P35348) (assay: Binding constant measured against Alpha-1A adrenergic receptor in human prostate; +++:highly active).
T1 sequence (P35348 whole entry): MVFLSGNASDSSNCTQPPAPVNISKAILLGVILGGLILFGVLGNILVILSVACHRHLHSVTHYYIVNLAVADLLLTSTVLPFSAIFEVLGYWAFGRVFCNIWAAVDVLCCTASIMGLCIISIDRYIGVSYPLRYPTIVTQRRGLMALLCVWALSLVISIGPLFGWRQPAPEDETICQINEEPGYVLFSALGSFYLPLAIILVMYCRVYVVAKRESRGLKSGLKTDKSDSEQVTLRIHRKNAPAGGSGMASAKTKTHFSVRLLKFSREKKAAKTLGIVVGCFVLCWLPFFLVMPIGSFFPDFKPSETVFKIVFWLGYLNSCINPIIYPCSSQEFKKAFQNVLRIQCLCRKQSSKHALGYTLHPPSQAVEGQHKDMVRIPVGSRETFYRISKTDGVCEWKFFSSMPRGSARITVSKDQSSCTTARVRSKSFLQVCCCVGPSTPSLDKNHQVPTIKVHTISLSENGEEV
Format: tissue-based, Prostate gland

In order of rising Ki:
1. C[C@H](Cc1cc2c(c(C(N)=O)c1)N(CCCO)CC2)NCCOc1ccccc1OCC(F)(F)F [SILODOSIN]  0.036 nM
2. COc1cccc(OC)c1OCCNC[C@H]1CSc2ccccc2O1  0.2 nM
3. COc1cccc(OC)c1OCCNC[C@@H]1Oc2ccccc2O[C@H]1c1ccc(C)cc1  0.35 nM
4. COCC1=C(C(=O)OC)[C@H](c2ccc(F)c(F)c2)N(C(=O)NCCCN2CCC(c3ccccn3)CC2)C(=O)N1  0.36 nM
5. CC(C)(Cc1c[nH]c2ccc(Cl)cc12)NCCOc1ccccc1OCC1CC1  0.6 nM
6. CC(C)Oc1ccccc1N1CCN(CCCNC(=O)CN2CCCCC2=O)CC1 [RWJ-69736]  0.65 nM

What follows are compounds tested against T1, Alpha-1A adrenergic receptor (assay: Binding constant measured against Alpha-1A adrenergic receptor in human prostate; +:inactive).
Format: tissue-based, Prostate gland

In order of rising Ki:
1. C[C@H](CN1CCN(c2cc(F)c(F)cc2F)CC1)N1C(=O)CC2(CCCC2)CC1=O  290 nM
2. COc1cc2c3c(c1OC)-c1cc4c(cc1C[C@@H]3N(C)CC2)OCO4  430 nM
3. CCS(=O)(=O)Nc1cccc(C(=C2CCCCC2)c2c[nH]cn2)c1  490 nM
4. N=C(CC(O)COc1ccccc1-c1ccccc1)N1CCCCC1 (stereo not given)  2500 nM

These compounds were tested against T1, Alpha-1A adrenergic receptor (assay: Binding constant measured against Alpha-1A adrenergic receptor in human prostate; ++:moderately active).
Format: tissue-based, Prostate gland

In order of rising Ki:
1. COc1ccccc1N1CCN(CCN2C(=O)c3ccccc3C(C)(C)C2=O)CC1  1 nM
2. COc1ccc(Cl)cc1N1CCN(CCCNc2nccc(C(N)=O)n2)CC1  2 nM
3. COc1ccccc1N1CCN(CC(O)COc2cccc3ccccc23)CC1 (stereo not given) [NAFTOPIDIL]  3.7 nM
4. COc1cccc(OC)c1OCCNCC1Oc2ccccc2OC1c1ccc(C)cc1 (stereo not given)  4.1 nM
5. C[C@@]1(O)C(=O)N(CCCN2CCN(c3ccc(F)cc3OCC(F)(F)F)CC2)C(=O)N[C@@H]1O  5 nM
6. O=C(CCCN1CCC2(CC1)C(=O)NCN2c1ccccc1)c1ccc(F)cc1 [SPIPERONE]  7.9 nM
7. CC(C)Oc1ccccc1N1CCN(CCNC(=O)CN2CCCCC2=O)CC1 [RWJ-38063]  9.3 nM
8. CC(C)Oc1ccccc1N1CCN(CCNC(=O)CN2CCCCCC2=O)CC1 [RWJ-68157]  22 nM
9. N=C(Nc1ccccc1)N1CCN(/C=C2/N=C(c3cccc4ccccc34)OC2=O)CC1  41 nM
10. CCOC(=O)C1CCC(=O)N1CC(=O)CCN1CCN(c2ccccc2OC(C)C)CC1 (stereo not given)  59 nM
